Each block holds one molecule with its values, some of them ahead of it.
What was measured:
human sural nerve = assay: Topical application of FAM-labelled peptides on human nerve sections; assay type: binding; settings: for normalized average signal intensity (normalized to FAM-HNP401): 100 μM FAM labelled, human sural nerve sections; for binding / contrast among peptides and controls screened on human nerve: 100 μM topical, sural nerve and temporalis muscle
Description: To determine the affinity of phage selected peptides for binding to human nerve they were chemically synthesized by solid-phase synthesis and labeled with fluorescein at the C-terminus via a GGC linker. Peptides were topically applied to sectioned human sural nerve and human temporalis muscle to determine nerve to muscle contrast. […] To confirm binding and contrast of HNP401 for additional nerve types binding was compared in nerve and muscle with both HNP401 and NP41 on facial brachial plexus nerve (FIG. 9). […] FAM-HNP401 was additionally tested topically on ex-vivo tissue for labeling of mouse facial nerve with surrounding muscle (FIG. 10, J-M).
To test the affinity of selected phage display peptides for binding to human nerves, they were chemically synthesized by solid-phase synthesis and labeled with fluorescein at the C-terminus. Peptides were topically applied to sections of surgically harvested human sural nerve and temporalis muscle to determine nerve to muscle contrast for selected peptides and controls (FIG. 23). […] To quantify differential binding to nerve versus muscle, fluorescence signal intensity was measured for ROIs from the perineurium of select nerves and human temporalis muscle.
Human sural nerve, antebrachial nerve and laryngeal nerve and temporalis muscle were obtained under IRB protocol number 130837 for Dr. Quyen Nguyen. Human peripheral nerves (typically sural) were obtained from patients undergoing nerve resection procedures. Human nerves from prostate gland of two patients were acquired under Moores Cancer Centre Biorepository IRB protocol number 090401. Tissue were sectioned and mounted on glass slides or Cryojane tape. Tissue sections were placed in a humidifier chamber for 30 min before application of the peptide solution. Peptides were diluted to appropriate concentration in 0.5×HBSS prior to topical application. 50 μl of peptide solution of with known concentration (1 μM to 375 μM) were applied to 10 μm nerve sections on tape or slides and incubated for 30 minutes in a humidifier chamber. After incubation with peptide nerve sections were washed with twice with 0.5×HBSS and once with 1×PBS. A cover-slip was applied and slides were imaged immediately on either a Zeiss Lumar dissecting scope of Nikon A1 confocal microscope. For confocal imaging tissue sections of 10 μm thickness were imaged with 488 nm laser excitation 515 (25) and a 10× air objective and a […] size. For immunohistochemistry the confocal Images were acquired with a 20× air objective at 0.4 μm/pixel.
Image J was used to analyze and compare images acquired using the confocal microscope and the Lumar dissecting scope. For each experimental set where probes were compared, we kept the acquisition parameters identical so as to directly compare the data obtained. […] All raw image files for a given experimental cohort were loaded at the same time into Image J as 16-bit tiff images. We then levelled the image for tissue treated with FAM-HNP401. Once these levels were set, the settings are propagated to all images in one step using Image J. The brightest image is set as the benchmark for all other images in the cohort to avoid saturating when the leveling is propagated.

[1] = Fluorescent plate reader assay of quenching by food dyes
Description: FIG. 21: Food dyes efficiently quench FAM-NP41 bladder fluorescence. A fluorescent plate reader assay was used to show dose dependent quenching of FAM-NP41 fluorescence. Erythrosine extra bluish (Santa Cruz Biotechnology, Inc.) was the most efficient quencher with >80% quenching at 2.5 times dye to fluorescein ratio and >95% quenching at 5× dye to fluorescein ratio (A). Other food dyes tested included Allura Red and Sunset Yellow. To test for quenching in-vivo we administered, by direct iv injection, 50 mg/kg MW 879.76 (^˜1.5 μmoles per 25 gm mouse) to mice that had been injected with 150 nmoles of FAM-NP41 2 hours prior. This represents approximately a 10× dye to FAM-NP41 dose. Some bladder fluorescence remained after imaging so additional dye (30 μl, 10 mM Erythrosin extra bluish) was injected directly into the bladder. Images are shown for mouse bladder with no dye quencher (B) and addition of Erythrosine extra bluish (intravenous and intra bladder) (C) with bladder fluorescence quench to near background level. Dye would likely not be needed if this method was used for human patients as bladder catheterization in patients could be started as FAM-NP41 is administered so bladder fluorescence could be washed out.

sciatic nerve [2] = assay type: in vivo, mice
Experimental: Either 150 or 450 nmoles of fluorescein labeled synthetic peptides were injected intravenously into mice. After a 2 hour waiting period for washout of nonspecific binding, mice were anesthetized and skin incisions were made over the dorsal surface of the hind legs to expose the sciatic nerve. Brightfield and fluorescent images were obtained with a dissecting microscope using Metamorph software (FIG. 1). Quantitation of fluorescence of nerves and adjacent non-nerve tissue was performed with Image J (FIG. 2). Peptides were also topically applied to human nerve sections. Nerves were freshly frozen in OTC prior to sectioning. Peptides were topically applied at concentration at 300 uM with images being shown for HNP401, HNP402, HNP404 and previous reported nerve binding peptides NP41 (FIG. 3)). Also shown are images for variants HNP301 ([…]) and NP124. NP713 was also tested and has not reported in a publication. NP713, is a derivative of NP41 with sequence […] that was enriched after 7 rounds of selection against mouse tissue, and was also found after 4 rounds of selection against human tissue. […] All D-amino acid controls for NP-41 and NP713 and non peptide conjugated carboxyfluorescein, are also shown. […] HNP401 was then tested for labeling of rat sciatic and rat prostate cavernosal nerve in-vivo. […] FIGS. 6 and 7 show in-vivo labeling of rat prostate cavernosal nerve with comparison to white light visualization.
Following anesthesia with intra-peritoneal injection of ketamine (80 mg/kg) and midazolam (40 mg/kg), FAM-NP41 or its variants were administered into mice retro-orbitally. After a washout period of 2-4 hours, the animals were anesthetized with ketamine (50 mg/ml) and xylazine (20 mg/ml). The bladder and prostate were exposed through a midline abdominal incision. The autonomic nerve along the cavernosal vessel in the prostate was imaged and recorded using a custom-made surgical imaging system. This system is a modified from Olympus MVX10 scope capable of hi-resolution fluorescence, RGB reflectance and realtime overlay with zoom from 0.6 to 5.7 cm field of view. Image) was used for quantitative analysis of nerve contrast for each peptide dye conjugate tested. Images of autonomic nerve in prostate were selected from the recorded files and magnified 300-400% prior to selection of ROI and measurement. Nerves and adjacent non-nerve tissues ROIs were hand-selected using polygonal selection tool at the same location from both of reflectance and fluorescence images. The mean and standard deviation of the pixel intensities within the selected areas were compared for nerves (mean=In, SD=σn) and adjacent background tissue (mean=Ib, SD=σb). Nerve to non-nerve contrast was calculated after background subtraction with formula |In−Ib|/(σn^2+σm^2)^0.5. For imaging the nerves in the prostate gland of male rats peptide dye conjugate were injected retro-orbitally. FAM-HNP401 was injected at a concentration of 13 mgs/kg followed by imaging after 15 minutes or alternatively a dose of 52 mgs/kg was used with imaging after 3 hours. Live animal surgery was performed under a ketamine-xylazine cocktail according to IACUC protocol. Sterile technique was used to expose the prostate; bladder was drained with a small syringe and sutured. The surgical field was washed with sterile saline prior to imaging. Mann-Whitney test was used to analyze data for both mice and rats to compare nerve intensity and nerve to non-nerve contrast between white light reflectance and fluorescence.

sciatic nerve [3] = settings: live mice, reference [22]; cited from earlier work
[4] = tested on: autonomic nerves within the prostate; assay: In-vivo imaging of autonomic nerves within the prostate of mice; settings: rodent models
Experimental: To visualize the autonomic nerves within the prostate of mice, NP41 peptide conjugated to fluorescein (FAM-NP41) was injected intravenously followed by imaging of prostate and surrounding tissue after surgical resection. Strong fluorescence from dye that rapidly accumulates in the bladder hindered visualization of the nerves within the prostate. To enhance visualization the bladder was surgically drained of urine and sutured prior to imaging. The urethra, an anatomically distinct structure, is never emptied of urine as the mice are alive for the duration of the experiment, resulting in a continuous passage of urine carrying metabolized peptide-dye to the bladder […]. […] To quantify nerve detection a total of 10 mice were injected with 600 nmoles FAM-NP41 and signal intensity was measured for nerve versus adjacent non-nerve tissue using both fluorescence and white light reflectance. Values to the right of the line indicate that there is improved visualization with fluorescence compared to reflected light. […]
Following anesthesia with intra-peritoneal injection of ketamine (80 mg/kg) and midazolam (40 mg/kg), FAM-NP41 or its variants were administered into mice retro-orbitally. […] The autonomic nerve along the cavernosal vessel in the prostate was imaged and recorded using a custom-made surgical imaging system. […]

[5] = tested on: autonomic nerve within the prostate; assay: In-vivo imaging of autonomic nerve within the prostate of rats; settings: rat prostate cavernosal nerve, live rats

Molecule: SGQVPWEEPYYVVKK [tested FAM labelled]
effect of terminal deletion on binding (human sural nerve; removal of C-terminal serine): tolerated

Molecule: EEPYYVVKKSS [HNP401-N-6, tested FAM labelled]
normalized average signal intensity (normalized to FAM-HNP401) (human sural nerve): 1.0±0.34

binding / contrast among peptides and controls screened on human nerve (human sural nerve): only weak non-specific binding | binding / contrast among peptides and controls screened on human nerve (human sural nerve; listed as Carboxyfluorescein): low signal and non-specific binding
Molecule: carboxyfluorescein [reference compound]

Molecule: O.O=C([O-])c1ccccc1-c1c2cc(I)c(=O)c(I)c-2oc2c(I)c([O-])c(I)cc12.[Na+].[Na+] [Erythrosine extra bluish]
quenching of FAM-NP41 fluorescence ([1]; 2.5 times dye to fluorescein ratio): > 80% | quenching of FAM-NP41 fluorescence ([1]; 5× dye to fluorescein ratio): > 95%

Molecule: QVPWEEPYYVVKKSS [HNP401-N-2, tested FAM labelled]
average signal intensity (nerve binding of deletion variants) (human sural nerve; 100 uM FAM labelled, human nerve sections, n=5): 1498.73 (+/−517.63) | normalized average signal intensity (normalized to FAM-HNP401) (human sural nerve): 2.02±0.65 | Normalized nerve to temporalis muscle contrast, increase with respect to FAM-HNP401 (human sural nerve; human sural nerve vs temporalis muscle): 3 fold

Molecule: PWEEPYYVVKKSS [HNP401-N-4, tested FAM labelled]
normalized average signal intensity (normalized to FAM-HNP401) (human sural nerve): 0.56±0.18

Molecule: NTQTLAKAPEHT [NP41, reference compound]
contrast (nerve fluorescent intensity/muscle fluorescent intensity) (sciatic nerve [2]; 450 nmols, FAM-labelled peptide, living wild type mice, FIG. 2): 6.7 fold | washout from nerve (sciatic nerve [2]; mouse, in vivo): little remaining signal after 24 hours | time to almost complete wash out after systemic injection (sciatic nerve [3]): ≤ 24 h | average increase in nerve to non-nerve signal, fluorescence vs white light reflectance [4]: 17%

Molecule: SHSSEFPRSWDMETN [HNP301]
contrast for prostate nerve labeling compared to HNP401 [5]: not showing as much contrast

Molecule: PYYVVKKSS [HNP401-N-8, tested FAM labelled]
normalized average signal intensity (normalized to FAM-HNP401) (human sural nerve): 0.98±0.31

— US11299515B2, “Optimized peptides for targeting human nerves and their use in image guided surgery, diagnostics and therapeutic” (The Regents of the University of California, priority 2017, dated 2022)
